Measurements as given in publication PMC5381078, “Carboxylate derivatives of tributyltin (IV) complexes as anticancer and antileishmanial agents” (DARU Journal of Pharmaceutical Sciences, 2017).

Experiments:
[1] = test system: promastigotes of Leishmania tropica kwh 23; assay: Antileishmanial activity (MTT assay); type: cell-based; conditions: 72 h; for Antileishmanial % growth inhibition (mortality, lethality): 20 μg/mL; for Antileishmanial LC50: MTT
Method: Antileishmanial activity against the promastigotes of Leishmania tropica kwh 23 was evaluated by a quantitative colorimetric assay using 3-(4,5-dimethylthiazol-2-yl)-2, 5-diphenyl tetrazolium bromide (MTT) with minor modifications. […] […] Negative control wells contained 1% DMSO in PBS. All samples were run in triplicate. Afterwards, plates were incubated for 4 h at 24 °C with 20 μL of MTT (4 mg/mL in distilled water) to determine the cell viability. Supernatant from each well was carefully removed leaving behind formazan crystals. Colored formazan crystals were dissolved in 100 μL of DMSO by setting those aside for 1 h to ensure complete dissolution. Cell viability was estimated by measuring absorbance at 540 nm using microplate reader and percentage growth inhibition was calculated.

[2] = test system: Leishmania tropica kwh 23 promastigotes; assay: ROS mediated antileishmanial activity (NaN3 / mannitol scavengers); type: cell-based; conditions: for Reduction of antileishmanial activity in the presence of NaN3: NaN3 0.1 mM; for Reduction of antileishmanial activity in the presence of mannitol: mannitol 1 mM
Method: Leishmania tropica kwh 23 promastigotes were treated in three groups. First group was exposed to samples along with 0.1 mM sodium azide (NaN3), second group to samples with 1 mM mannitol and third group comprised of all controls. In third group, promastigotes were treated in different wells with samples only (sample control), 1% DMSO in PBS only (negative control-I), amphotericin B only (positive control), 0.1 mM NaN3 only (negative control-II) and 1 mM mannitol only (negative control-III). Plates were incubated followed by MTT assay described above.

[3] = test system: Streptomyces 85E; assay: Protein kinase inhibition assay (Streptomyces disc assay); type: cell-based; conditions: for ZOI CZ (clear zone): (-) shows no ZOI; for ZOI BZ (bald zone): BZ indicative of PK inhibition; for MIC for PK inhibition: minimum inhibitory concentration
Method: Protein kinase inhibitory activity of the tributyltin (IV) compounds was measured against Streptomyces 85E strain using previously described protocol. Culture of Streptomyces 85E was refreshed in tryptic soy broth and 100 μL of this was swabbed on sterile ISP4 medium under aseptic conditions. […] Diameter (mm) of zone of inhibition (ZOI) around all samples and controls was measured as clear zone (CZ) and bald zone (BZ). […] BZ is indicative of PK inhibition.

[4] = test system: Leishmania tropica kwh 23 promastigotes; assay: Photosensitizing effect against leishmania; type: cell-based; conditions: 0.092 μg/mL; for Photosensitizing effect % growth inhibition, Sunlight with IR filter: 15 min; for Photosensitizing effect % growth inhibition, Sunlight: 15 min sunlight
Method: Photosensitizing effect of tributyltin (IV) compounds was determined in three parallel groups. Samples and controls were exposed for 15 min to sunlight (168 W/m^2 of sun intensity) or sunlight with IR filter or dark conditions. The relative intensity of sunlight was measured by a CCD spectrometer (Ocean Optics, model HR4000). Later, plates were incubated at 25 °C for 72 h and cell viability was determined by MTT assay as given above. In this assay, samples were tested at concentrations showing less than 55% inhibition in primary antileishmanial assay to exclude false positive.

[5] = test system: isolated lymphocytes; assay: Cytotoxicity against isolated lymphocytes (MTT assay); type: cell-based, human; conditions: 24 h
Method: Lymphocytes were isolated using previously described protocol with some modifications. Informed consent was obtained from volunteers and procedure was conducted according to international ethical guidelines after gaining approval from the ethical committee of the Quaid-i-Azam University. A volume of 3 mL of blood was obtained from a healthy donor by venipuncture and diluted (1:1) with PBS. It was layered over 2 mL Histopaque-1077 and centrifuged at 800 × g for 20 min. The buffy coat was aspirated into 5 mL of PBS and centrifuged at […] for 4 min to pellet the lymphocytes. The pellet was suspended in 1 mL of RPMI-1640 and cell density was adjusted to get 1 × 10^5 cells/mL. For cytotoxicity determination, 20 μL of samples (20 μg/mL) or vincristine or 1% DMSO in PBS and 180 μL of lymphocyte suspension were incubated in 96-well plate at 37 °C for 24 h in humidified 5% carbon dioxide incubator (Panasonic, Japan MCO-18 AC-PE). Phytohaemagglutinin (PHA) was added in medium to stimulate lymphocyte growth. Afterwards, MTT assay was done as described above. IC50 values were determined using 3-fold dilutions of the samples.

[6] = test system: THP-1 cell line; assay: Cytotoxicity against THP-1 cell line (MTT assay); type: cell-based, human; conditions: 20 μg/mL, 72 h
Method: Cytotoxicity of tributyltin (IV) compounds against THP-1 cell line was determined by 3-(4,5-dimethylthiazol-2-yl)-2,5-diphenyl tetrazolium bromide (MTT) assay. THP-1 cells were cultured in complete growth medium comprising RPMI-1640 (pH 7.4) supplemented with 2.2 g/L NaHCO3 and 10% v/v heat inactivated fetal bovine serum (HIFBS). An aliquot of 20 μL of samples in 1% DMSO in PBS and 180 μL of THP-1 cells were mixed in 96-well plate. Cells were added at an assay density of 1 × 10^4 cells/mL whereas sample/standard was added to achieve the final concentration of 20 μg/mL. The plate was incubated at 37 °C for 72 h in humidified 5% carbon dioxide incubator (Panasonic, Japan MCO-18 AC-PE). Vincristine and 1% DMSO in PBS were used as positive and negative controls respectively. After incubation, 20 μL of pre-filter sterilized MTT solution (4 mg/mL in distilled water) was added in plates and incubated for 4 h at 37 °C in CO2 incubator. Later, colored formazan crystals were separated by removing supernatant and dissolved in 100 μL of DMSO. Reaction was allowed to stand for 1 h to ensure complete dissolution and absorbance was measured at 540 nm using microplate reader (Biotech USA, Elx 800).

[7] = test system: HepG2 cell line; assay: Cytotoxicity against HepG2 cell line (SRB assay); type: cell-based, human; conditions: 72 h
Method: Cytotoxicity was further evaluated against HepG2 cell line by sulforhodamine B (SRB) colorimetric assay. Dulbecco's Modified Eagle Medium (DMEM) supplemented with 10% FBS, 100 μg/mL streptomycin sulfate, 100 IU/mL penicillin G sodium and 0.25 μg/mL amphotericin B was used to culture HepG2 cells in CO2 (5%) incubator (Panasonic, Japan MCO-18 AC-PE) at 37 °C. An aliquot of 20 μL (1% DMSO in PBS) of samples was added to 180 μL of cell culture at an assay density of 1x10^5 cells/mL in 96-well plate. The plate was incubated at 37 °C for 72 h in CO2 incubator. Final concentration of compounds/standard was 20 μg/mL. Doxorubicin and 1% v/v DMSO in PBS ere used as positive and negative controls respectively. An equivalent number of cells in twelve wells of 96-well plate were incubated for 1 h at 37 °C and labeled as day zero control. Later, cells were fixed by adding 50 μL of cold 20% w/v TCA for 1 h at 4 °C. These were washed with tap water, air dried and stained with 50 μL of 0.057% w/v SRB in 1% v/v acetic acid for 30 min at room temperature. Cells were again washed with 1% v/v acetic acid, dried overnight and 200 μL of 10 mM Tris base (pH 10) was used to solubilize the bound dye for 1 h. Absorbance was measured at 515 nm using a microplate reader. Percentage of growth inhibition was calculated as: % inhibition = 100 – [(As – Ao) / (An – Ao) × 100], where, Ao, As and An are absorbance of day zero control, samples and negative control respectively. IC50 values were determined using 3-fold dilutions of the samples.

[8] = test system: cellular metacyclic promastigotes; design: method as in PMID 19546361; conditions: cited from earlier work
[9] = test system: axenic log-phase promastigotes; design: method as in PMID 19546361; conditions: cited from earlier work

C[C@@H]1[C@H](O)[C@@H](C)/C=C/C=C/C=C/C=C/C=C/C=C/C=C/[C@H](O[C@@H]2O[C@H](C)[C@@H](O)[C@H](N)[C@@H]2O)C[C@@H]2O[C@](O)(C[C@@H](O)C[C@@H](O)[C@H](O)CC[C@@H](O)C[C@@H](O)CC(=O)O[C@H]1C)C[C@H](O)[C@H]2C(=O)O [Amphotericin B, reference compound]
mortality at 20 µg/mL ([1]; Leishmania tropica, read-out: Antileishmanial % growth inhibition (mortality, lethality)): 100%
Reduction of antileishmanial activity in the presence of NaN3 [2]: 16%
Reduction of antileishmanial activity in the presence of mannitol [2]: 10%

CCC[CH2][Sn]([CH2]CCC)([CH2]CCC)[O]C(=O)/C=C\C(=O)NC1CCCCC1 [Ch-442, tributylstannyl (Z)-4-(cyclohexylamino)-4-oxobut-2-enoate]
Antileishmanial % growth inhibition (mortality, lethality) [1]: 95.8 ± 2.16 %
Antileishmanial LC50 [1]: 0.088 ± 0.009 µg/mL
ZOI CZ (clear zone) ([3]; 6.25 μg/disc): 10 ± 0.74 mm
ZOI BZ (bald zone) ([3]; 6.25 μg/disc): 29 ± 0.78 mm
ZOI CZ (clear zone) ([3]; 50 μg/disc): 40 ± 1.17 mm
MIC for PK inhibition [3]: 0.391 ± 0.006 μg/disc
Photosensitizing effect % growth inhibition, Control [4]: 46.1 ± 0.56%
Photosensitizing effect % growth inhibition, Dark [4]: 44.18 ± 1.16%
Photosensitizing effect % growth inhibition, Sunlight with IR filter [4]: 49.25 ± 0.63%
Photosensitizing effect % growth inhibition, Sunlight [4]: 40.5 ± 0.12%
Isolated lymphocytes IC50 [5]: 14.9 ± 0.25 µg/mL
THP-1 % growth inhibition [6]: 44.6 ± 1.18%
Reduction of antileishmanial activity in the presence of NaN3 [2]: 22%
Reduction of antileishmanial activity in the presence of mannitol [2]: 38.2%

CCC[CH2][Sn]([CH2]CCC)([CH2]CCC)[O]C(=O)/C=C\C(=O)Nc1ccccc1 [Ch-458, tributylstannyl (Z)-4-oxo-4-(phenylamino)but-2-enoate]
Antileishmanial % growth inhibition (mortality, lethality) [1]: 97.8 ± 1.23 %
Antileishmanial LC50 [1]: 0.256 ± 0.064 µg/mL
HepG2 % growth inhibition ([7]; 20 μg/mL): 98.7 ± 3.56 %
HepG2 IC50 ([7]; 3-fold dilutions): 1.58 ± 0.07 µg/mL
ZOI CZ (clear zone) ([3]; 6.25 μg/disc): 12 ± 1.25 mm
ZOI BZ (bald zone) ([3]; 6.25 μg/disc): 31 ± 1.37 mm
ZOI CZ (clear zone) ([3]; 50 μg/disc): 30 ± 1.2 mm
MIC for PK inhibition [3]: 0.195 ± 0.001 μg/disc
Photosensitizing effect % growth inhibition, Control [4]: 35.2 ± 1.78%
Photosensitizing effect % growth inhibition, Dark [4]: 36.7 ± 0.74%
Photosensitizing effect % growth inhibition, Sunlight with IR filter [4]: 30.25 ± 0.17%
Photosensitizing effect % growth inhibition, Sunlight [4]: 42.7 ± 1.35%
Isolated lymphocytes % growth inhibition ([5]; 20 μg/mL): 14.8 ± 0.13ǂ %
THP-1 % growth inhibition [6]: 21.2 ± 1.57%

O.O.O.O.O.O.O.O.O.O=C([O-])[C@@H]1[O][Sb](=[O])([O][Sb]2(=[O])[O][C@H]([C@H](O)CO)[C@H](O)[C@H](C(=O)[O-])[O]2)[O][C@H]([C@H](O)CO)[C@@H]1O.[Na+].[Na+].[Na+] (stereo partly drawn) [sodium stibogluconate]
IC50 [8]: 22 µg/mL
IC50 [9]: 64 µg/mL
